Results from patent publication US10898481B2 (priority 2018, dated 2021).
Like-named read-outs stand apart in the source and are kept apart here.

Key:
[1] = biological target: hA2b (Homo sapiens (Human), UniProt P29275); assay: Radioligand binding to hA2b membrane with [3H]-DPCPX; settings: read-out: Binding Affinity (IC50 nM) hA2b
From the text: (§1) The empty boxes in the tables below indicate data not collected yet.

[2] = biological target: hA3/CHO (Homo sapiens (Human), UniProt P0DMS8); assay: cell-based
Description: hA2a/CHO, hA2b/CHO, hA3/CHO and mA2a/CHO (Genscript) were plated at 5×10^3 cells/well into 384-well polystyrene plates at the day of experiment. Compounds were pre-incubated with cells for 30 min at 37° C., 5% CO2. Then 10 μM adenosine was added to the cells and incubated for 30 min at 37° C., 5% CO2. Detection reagent (CISBIO) was added and the plates were incubated for 60 min at room temperature. The signal was captured by Envision.

[3] = biological target: mA2a/CHO (Mus musculus (Mouse), UniProt Q60613); assay: cAMP inhibition assay in mA2a/CHO cells, 10 μM adenosine; format: cell-based; settings: read-out: cAMP & FLIPR IC50 (nM) mA2a;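 also: compounds preincubated 30 min at 37 °C before the adenosine challenge, then 30 min further stimulation, readout after 60 min detection reagent incubation at room temperature in 384-well plates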
[4] = biological target: hA2b/CHO (Homo sapiens (Human), UniProt P29275); assay: cAMP inhibition assay in hA2b/CHO cells, 10 μM adenosine; format: cell-based; settings: read-out: cAMP & FLIPR IC50 (nM) hA2b;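 also: cells exposed to compound 30 min at 37 °C, then stimulated with adenosine a further 30 min, cAMP read after 60 min at room temperature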
[5] = biological target: hA2a/CHO (Homo sapiens (Human), UniProt P29274); assay: cAMP inhibition assay in hA2a/CHO cells, 10 μM adenosine; format: cell-based; settings: read-out: cAMP & FLIPR IC50 (nM) hA2a;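 also: compounds added to cells 30 min ahead of adenosine, then a further 30 min at 37 °C with adenosine before cAMP detection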
[6] = biological target: hADORA1/CHO (hA1 expressing) cells (Homo sapiens (Human), UniProt P30542); assay: cell-based; settings: 10 μM adenosine
Description: hADORA1/CHO (hA1 expressing) cells (Genscript) were plated at 1×10^4 cells/well into 384-well polystyrene plates one day before starting the experiment. On the day of experiment, the supernatant was discard and replaced with 40 μL of dye (FLIPR calcium 5 Assay Kit) per well and the plates were incubated for 60 mins at 37° C. plus 5% CO2. Then testing compounds were added at different concentrations for FLIPR™ inhibition assay. After a 400s incubation with compound, 10 μM adenosine was added into the cells, and the signal was captured by FLIPR.

[7] = biological target: hA2a (Homo sapiens (Human), UniProt P29274); assay: Radioligand binding to hA2a membrane with [3H]-CGS21680; settings: read-out: Binding Affinity (IC50 nM) hA2a
From the text: as §1

[8] = biological target: hA1 (Homo sapiens (Human), UniProt P30542); settings: hA1 membrane, [3H]-DPCPX; read-out: Binding Affinity (IC50 nM) hA1
From the text: as §1

[9] = FLIPR inhibition, read-out: cAMP & FLIPR IC50 (nM) hA1
[10] = cAMP & FLIPR IC50 (nM) hA1, FLIPR inhibition

mA2a/CHO, sequence (Q60613 whole entry): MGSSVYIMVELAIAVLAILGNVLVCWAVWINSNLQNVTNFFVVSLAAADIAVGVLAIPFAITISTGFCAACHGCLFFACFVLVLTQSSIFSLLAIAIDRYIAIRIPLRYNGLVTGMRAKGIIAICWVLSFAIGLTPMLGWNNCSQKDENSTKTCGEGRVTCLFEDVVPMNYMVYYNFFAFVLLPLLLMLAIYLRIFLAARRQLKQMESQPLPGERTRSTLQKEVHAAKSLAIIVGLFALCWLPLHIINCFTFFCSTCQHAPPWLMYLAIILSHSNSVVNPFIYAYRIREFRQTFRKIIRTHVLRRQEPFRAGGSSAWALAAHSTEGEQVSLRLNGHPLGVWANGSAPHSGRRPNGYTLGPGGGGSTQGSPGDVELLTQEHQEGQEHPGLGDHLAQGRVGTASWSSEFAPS
hADORA1/CHO (hA1 expressing) cells, sequence (P30542 whole entry): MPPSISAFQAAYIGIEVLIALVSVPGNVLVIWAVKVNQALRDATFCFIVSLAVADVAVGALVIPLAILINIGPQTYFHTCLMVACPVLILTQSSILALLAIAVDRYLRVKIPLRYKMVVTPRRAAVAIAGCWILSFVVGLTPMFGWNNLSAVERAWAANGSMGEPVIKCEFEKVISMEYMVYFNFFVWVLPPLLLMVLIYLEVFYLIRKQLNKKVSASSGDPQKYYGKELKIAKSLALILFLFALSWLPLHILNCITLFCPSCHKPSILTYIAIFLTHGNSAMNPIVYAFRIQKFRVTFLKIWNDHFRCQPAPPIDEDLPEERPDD
hA1, sequence (P30542 whole entry): as above
hA2b/CHO, sequence (P29275 whole entry): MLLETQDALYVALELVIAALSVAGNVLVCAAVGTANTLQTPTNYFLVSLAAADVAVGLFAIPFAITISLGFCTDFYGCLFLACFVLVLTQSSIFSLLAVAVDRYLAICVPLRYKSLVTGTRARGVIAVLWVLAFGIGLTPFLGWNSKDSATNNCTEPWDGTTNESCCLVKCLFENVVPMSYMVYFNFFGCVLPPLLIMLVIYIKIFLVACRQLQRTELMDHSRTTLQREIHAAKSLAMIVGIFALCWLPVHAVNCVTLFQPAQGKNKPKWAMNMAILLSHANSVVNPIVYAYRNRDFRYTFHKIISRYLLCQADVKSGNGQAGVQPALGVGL
hA2a, sequence (P29274 whole entry): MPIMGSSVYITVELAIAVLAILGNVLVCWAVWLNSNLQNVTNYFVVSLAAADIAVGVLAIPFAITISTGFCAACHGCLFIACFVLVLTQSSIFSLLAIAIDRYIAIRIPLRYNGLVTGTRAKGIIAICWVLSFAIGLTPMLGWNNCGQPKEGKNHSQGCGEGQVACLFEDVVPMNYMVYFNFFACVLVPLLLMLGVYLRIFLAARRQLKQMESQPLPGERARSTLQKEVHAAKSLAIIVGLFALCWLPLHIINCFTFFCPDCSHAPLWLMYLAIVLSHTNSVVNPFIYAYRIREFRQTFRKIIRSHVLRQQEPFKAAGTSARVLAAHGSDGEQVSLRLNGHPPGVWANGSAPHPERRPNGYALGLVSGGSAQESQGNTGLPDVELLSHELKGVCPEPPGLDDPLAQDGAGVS
hA2a/CHO, sequence (P29274 whole entry): as above
hA2b, sequence (P29275 whole entry): as the sequence (P29275 whole entry) above
hA3/CHO, sequence (P0DMS8 whole entry): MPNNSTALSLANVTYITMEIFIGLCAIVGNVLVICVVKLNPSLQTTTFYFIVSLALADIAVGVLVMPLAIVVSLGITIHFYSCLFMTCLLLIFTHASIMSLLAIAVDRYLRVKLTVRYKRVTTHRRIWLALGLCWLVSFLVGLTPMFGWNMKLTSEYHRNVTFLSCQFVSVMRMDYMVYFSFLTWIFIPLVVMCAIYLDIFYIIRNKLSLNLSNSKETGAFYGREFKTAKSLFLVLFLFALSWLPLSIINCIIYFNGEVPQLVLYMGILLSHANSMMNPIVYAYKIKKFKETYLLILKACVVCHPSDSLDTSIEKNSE

Compound	IC50 [1]	IC50 [2]	IC50 [3]	IC50 [4]	IC50 [5]	IC50 [6, 9]	IC50 [7]	IC50 [8]	IC50 [6, 10]
CNc1cccc(CNC(=O)c2nc(-c3ccc(=O)n(C)c3)c(-c3ncco3)nc2N)n1 [Example 23, 3-amino-6-(1-methyl-6-oxo-1,6-dihydropyridin-3-yl)-N-[[6-(methylamino)pyridin-2-yl]methyl]-5-(1,3-oxazol-2-yl)pyrazine-2-carboxamide]	2.9 nM	≥ 10000 nM	64 nM	880 nM	25 nM	281 nM	3.5 nM	–	–
Cn1cc(-c2nc(C(=O)NCc3c(F)cccc3F)c(N)nc2-c2ncco2)ccc1=O [Example 3, 3-amino-N-(2,6-difluorobenzyl)-6-(1-methyl-6-oxo-1,6-dihydropyridin-3-yl)-5-(oxazol-2-yl)pyrazine-2-carboxamide]	1.4 nM	≥ 10000 nM	5.8 nM	53 nM	4.5 nM	159 nM	1.9 nM	16 nM	–
Cc1cnc2ccc(-c3nc(C(=O)NC(C)C)c(N)nc3-c3ncco3)cn12 [Example 133, 3-amino-N-isopropyl-6-(3-methyl-imidazo[1,2-a]pyridin-6-yl)-5-(oxazol-2-yl)pyrazine-2-carboxamide]	–	–	19 nM	554 nM	5.9 nM	–	2.7 nM	271 nM	10000 nM
Cc1cnc2ccc(-c3nc(C(=O)NC[C@@H]4CCCO4)c(N)nc3-c3ncco3)cn12 [Example 127, (S)-3-amino-6-(3-methylimidazo[1,2-a]pyridin-6-yl)-5-(oxazol-2-yl)-N-((tetrahydrofuran-2-yl)methyl)pyrazine-2-carboxamide]	–	–	14 nM	99 nM	1.7 nM	–	3.1 nM	68 nM	2420 nM
Cc1cnc2ccc(-c3nc(C(=O)NC4CCC4)c(N)nc3-c3ncco3)cn12 [Example 218, 3-amino-N-cyclobutyl-6-(3-methylimidazo[1,2-a]pyridin-6-yl)-5-(oxazol-2-yl)pyrazine-2-carboxamide]	–	–	28 nM	359 nM	1.5 nM	> 10000 nM	9.1 nM	475 nM	–
COCCNC(=O)c1nc(-c2ccc3ncc(C)n3c2)c(-c2ncco2)nc1N [Example 147, 3-amino-N-(2-methoxyethyl)-6-(3-methylimidazo[1,2-a]pyridin-6-yl)-5-(oxazol-2-yl)pyrazine-2-carboxamide]	–	–	15 nM	134 nM	3.8 nM	2380 nM	5.6 nM	108 nM	–
CN(C)c1cccnc1CNC(=O)c1nc(-c2ccc(=O)n(C)c2)c(-c2ncco2)nc1N [Example 16, 3-amino-N-((3-(dimethylamino)pyridin-2-yl)methyl)-6-(1-methyl-6-oxo-1,6-dihydropyridin-3-yl)-5-(oxazol-2-yl)pyrazine-2-carboxamide]	–	–	8.3 nM	336 nM	5.3 nM	32 nM	3.9 nM	15 nM	–
